Assay results as given in patent publication US20240208950A1, “COMPOSITIONS AND METHODS FOR TREATMENT OF CERVICAL AND OVARIAN CANCER” (SOUTH DAKOTA BOARD OF REGENTS, priority 2021, published 2024).

Columns and labels:
CaSki cells = assay: Cell cycle analysis by flow cytometry, CaSki; type: cell-based, human; conditions: 10 and 15 μM
Protocol: The effect of Br-ORM on cell cycle analysis was performed by flow cytometry as has described in the art. In brief, approximately 70% confluent cervical cancer cells were treated with Br-ORM (10 and 20 μM) for 24 hours. The cells were trypsinized and washed twice with ice-cold PBS (1×). The cell pellets were resuspended in 50 μL of ice cold PBS (1×) and 450 μL of cold methanol. The cells were washed twice with ice cold PBS (1×), suspended in 500 μL PBS, and incubated with 500 μL RNase (20 μg/mL final concentration) at 37° C. for 1 hour. The cells were chilled over ice for 10 minutes and stained with propidium iodide (50 μg/mL final concentration) for 1 hour and analyzed by flow cytometry (BD Accuri C6; Becton Dickinson, Mountain View, CA, USA). Data was analyzed by using Modfit software.
To examine the effect on cell cycle distribution, cervical cancer cells were treated with Br-ORM (10 and 15 μM) and analyzed by flow cytometry (FIG. 13F(i)-(ii)).

β-catenin in CaSki cells = assay: Western blot of β-catenin in nuclear and cytoplasmic extracts, CaSki; type: cell-based, human; conditions: 15 μM, 24 hours
Protocol: In the Example shown at FIGS. 9A-9E, cells were subjected to treatment with 15 μM concentration of ORM-Br for 24 hours, nuclear extracts were prepared and western blot analysis were used to detect the protein levels of β-catenin. […] Western blots were reprobed with β-actin and Histone H3 antibodies as an internal control.
The nuclear and cytoplasmic lysates were prepared using respective buffers. The cell lysates (40 μg) were subjected to SDS-PAGE and blotted on PVDF membrane. The membranes were further blocked in 5% milk diluted in 1×TBST solution for 1 hour and incubated overnight in primary antibodies. The following day, the membranes were washed and incubated with secondary antibodies for 1 hour, washed again and developed on a UVP system using chemi-luminiscent reagents.
The EMT process in a cell is driven by growth factors or other signaling proteins such as Wnt/beta-catenin and extracellular matrix component that may stimulate cellular growth and migration. The effect of Br-ORM on β-catenin signaling was examined.
FIG. 15. Effect OF Br-ORM on β-catenin signaling and molecular docking of Br-ORM with β-catenin. Effect of Br-ORM on β-catenin distribution in cytoplasm and nucleus of CaSki and SiHa cells. […] Effect of Br-ORM on β-catenin localization in CaSki cells as determined by confocal microscopy (FIG. 15B(i)-(ii)). […]

`COc1ccc2c(c1)OC(C)(C)C(c1ccc(Br)cc1)C2c1ccc(OCCN2CCCC2)cc1` (stereo not drawn) [ORM-Br] was tested, and the cell cycle distribution (CaSki cells) was “arrested cell cycle progression of CaSki and SiHa cells at G1/S phase”, the “nuclear β-catenin expression” value (β-catenin in CaSki cells) was “decrease in expression of nuclear β-catenin” and the “nuclear β-catenin expression” value (β-catenin in CaSki cells; listed as Br-ORM) was “inhibited nuclear β-catenin”.
